What was measured:
Nicotiana benthamiana = assay: Test Example 4: growth promotion under low-temperature stress by hydroponics of Nicotiana benthamiana, 10 ppm; type: in vivo; conditions: 10 ppm in medium, low-temperature stress 7 days at 1.5±1.0° C., green leaf area 3 days later, equation (1)
Procedure, shortened: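 Nicotiana benthamiana grown 7 days at 22 °C in half-strength Murashige-Skoog medium, pH 5.8, with compound at 10 ppm (DMSO 1/1,000 v/v), chilled 7 days at 1.5±1.0 °C, recovered 3 days at 22 °C. Green leaf area expressed relative to stressed and unstressed DMSO controls; ≥5 scored as mitigating.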

[1] = test system: Rice (variety: Nipponbare); assay: Test Example 2: promotion of root growth by hydroponics of rice, 1 ppm; type: in vivo; conditions: Oryza sativa, hydroponic solution containing the test compound at 1 ppm, average of 4 or 5 individuals, read-out: Relative value of length of seminal root (%-untreated control plot)
Procedure, shortened: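 Surface-sterilized Nipponbare seeds germinated 3 days in dark at 28° C in ¼ Hoagland solution with compound at 1 ppm (DMSO 1/10,000; DMSO-only control), then grown hydroponically 3 days at 26° C, 4,000 lux, 16 h day. Seminal root length averaged over 4–5 plants.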

SMILES | relative leaf area at 10 ppm (Nicotiana benthamiana) [%] | change in vivo at 1 ppm [1] [%]
COC(=O)c1oc2ccc(C(F)(F)F)cc2c1NC(C)=O [Compound 63] | ≥ 5 | > 5
COC(=O)c1oc2ccccc2c1NC(C)=O [Compound 40] | ≥ 5 | > 5
CCOC(=O)c1oc2ccc(C(F)(F)F)cc2c1C(F)(F)F [Compound 71] | ≥ 5 | –
COC(=O)c1oc2ccccc2c1C(F)(F)F [Compound 83] | ≥ 5 | > 5
O=C(NCc1ccccc1)c1oc2ccc(C(F)(F)F)cc2c1C(F)(F)F [Compound 77] | ≥ 5 | > 5
O=C(O)c1oc2ccccc2c1C(F)(F)F [Compound 82] | ≥ 5 | > 5
COC(=O)c1oc2ccc(C(F)(F)F)cc2c1O [Compound 50] | – | > 5
O=C(Nc1ccccc1)c1cc2cc(C(F)(F)F)ccc2o1 [Compound 53] | ≥ 5 | > 5
Cc1c(C(=O)O)oc2ccccc12 [Compound 36] | – | > 5
O=C(OCc1ccccc1)c1oc2ccc(C(F)(F)F)cc2c1C(F)(F)F [Compound 73] | ≥ 5 | > 5
COC(=O)c1oc2ccc(C(F)(F)F)cc2c1C(F)(F)F [Compound 70] | – | > 5
NC(=O)c1cc2cc(C(F)(F)F)ccc2o1 [Compound 51] | ≥ 5 | > 5
O=C(O)c1oc2ccc(C(F)(F)F)cc2c1C(F)(F)F [Compound 69] | ≥ 5 | > 5
CNC(=O)c1oc2ccc(C(F)(F)F)cc2c1C(F)(F)F [Compound 75] | ≥ 5 | > 5
O=C(Nc1ccccc1)c1oc2ccc(C(F)(F)F)cc2c1C(F)(F)F [Compound 76] | – | > 5
NC(=O)c1oc2ccc(C(F)(F)F)cc2c1C(F)(F)F [Compound 74] | ≥ 5 | > 5
COC(=O)c1oc2ccccc2c1NC(=O)C(F)(F)F [Compound 39] | ≥ 5 | –
O=C(O)c1nc2c(F)cc(F)cc2s1 [Compound 86] | ≥ 5 | > 5
COC(=O)c1cc2ccccc2o1 [Compound 1] | ≥ 5 | > 5
COC(=O)c1cc2cc(C(F)(F)F)ccc2o1 [Compound 3, methyl 5-(trifluoromethyl)benzofuran-2-carboxylate] | – | > 5

SMILES | relative leaf area at 10 ppm (Nicotiana benthamiana) [%] | change in vivo at 1 ppm [1] [%]
CCOC(=O)c1cc2c(C(F)(F)F)cccc2o1 [Compound 44] | ≥ 5 | > 5
O=C(O)c1cc2cc(Br)ccc2o1 [Compound 79] | ≥ 5 | –
O=C(NCc1ccccc1)c1cc2cc(C(F)(F)F)ccc2o1 [Compound 54] | ≥ 5 | > 5
COC(=O)c1cc2c(C(F)(F)F)cccc2o1 [Compound 45] | – | > 5
O=C(OCc1ccccc1)c1cc2cc(C(F)(F)F)ccc2o1 [Compound 56] | ≥ 5 | > 5
COC(=O)c1oc2ccc(C(F)(F)F)cc2c1N(C)C [Compound 62] | ≥ 5 | > 5
O=C(Oc1ccccc1)c1cc2cc(C(F)(F)F)ccc2o1 [Compound 55] | ≥ 5 | > 5
COC(=O)c1oc2ccc(C(F)(F)F)cc2c1N(C(C)=O)C(C)=O [Compound 64] | ≥ 5 | –
COC(=O)c1nc2cc(C(F)(F)F)ccc2o1 [Compound 17, methyl 5-trifluoromethylbenzoxazole-2-carboxylate] | – | > 5
COC(=O)c1oc2ccccc2c1C [Compound 37] | – | > 5
Cc1c(C(=O)O)oc2ccc(C(F)(F)F)cc12 [Compound 34] | ≥ 5 | > 5
COC(=O)c1oc2ccc(C(F)(F)F)cc2c1NS(C)(=O)=O [Compound 67] | ≥ 5 | > 5
CNC(=O)c1cc2cc(C(F)(F)F)ccc2o1 [Compound 52] | – | > 5
O=C(O)c1cc2c(C(F)(F)F)cccc2o1 [Compound 43] | ≥ 5 | > 5
NC(=O)c1oc2ccccc2c1C(F)(F)F [Compound 85] | – | > 5
COC(=O)c1oc2ccccc2c1N(C(C)=O)C(C)=O [Compound 41] | ≥ 5 | > 5
COC(=O)c1oc2ccc(C(F)(F)F)cc2c1NC(=O)C(F)(F)F [Compound 65] | ≥ 5 | > 5
COC(=O)c1oc2ccc(C(F)(F)F)cc2c1C [Compound 33] | ≥ 5 | > 5
CCOC(=O)c1oc2cccc(O)c2c1C [Compound 80] | – | > 5
COC(=O)c1oc2ccc(C(F)(F)F)cc2c1NS(=O)(=O)c1ccccc1 [Compound 68] | – | > 5
